The source of these data is patent publication US12545659B2, “IRAK degraders and uses thereof” (Kymera Therapeutics, Inc., priority 2019, dated 2026).

For one assay, the target named is T1, IRAK4 (Homo sapiens, UniProt Q9NWZ3).
T1 construct: endogenous in cells; host or cells: OCI-LY10
T1 sequence (Q9NWZ3 1-460): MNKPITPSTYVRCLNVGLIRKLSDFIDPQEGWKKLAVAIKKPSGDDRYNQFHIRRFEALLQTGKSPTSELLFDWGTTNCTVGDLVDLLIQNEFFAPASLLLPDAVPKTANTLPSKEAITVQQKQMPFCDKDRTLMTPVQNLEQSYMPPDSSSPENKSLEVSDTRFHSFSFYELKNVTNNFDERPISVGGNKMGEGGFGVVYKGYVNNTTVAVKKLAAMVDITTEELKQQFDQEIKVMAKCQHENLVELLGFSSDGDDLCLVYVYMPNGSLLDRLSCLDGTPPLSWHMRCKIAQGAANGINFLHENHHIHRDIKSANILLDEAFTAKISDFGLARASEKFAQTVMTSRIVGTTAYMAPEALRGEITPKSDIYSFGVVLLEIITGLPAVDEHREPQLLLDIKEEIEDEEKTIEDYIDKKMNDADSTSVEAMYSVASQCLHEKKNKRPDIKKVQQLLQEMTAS
Put plainly: IRAK4 MSD Degradation in OCI-LY10. In kind it is cell-based. The settings on record: OCI-LY10 cells, 4 hrs incubation, read-out: IRAK4 degradation in OCI-LY10 at 4 hrs: DC50. A digest of the protocol: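 OCI-LY10 cells treated with 8-dose, 1:3 dilution series (top final 1 to 10 μM) for 4 to 24 h at 37 °C, 5% CO2. Lysate IRAK4 quantified by MSD sandwich immunoassay (mouse 2H9 capture, rabbit Y279 detection, SULFO-TAG anti-rabbit); DC50 from three-parameter logistic fit.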
With `CN(C[C@H]1CC[C@H](n2cc3cc(NC(=O)c4cccc(C(F)(F)F)n4)c(N4CCOCC4)cc3n2)CC1)C1CCN(Cc2cccc3c2n(C)c(=O)n3C2CCC(=O)NC2=O)CC1` (some centres unmarked) [I-214], the DC50 lay within 50 to 100 nM.

Take `Cn1c(=O)n(C2CCC(=O)NC2=O)c2cccc(C3CCN(C[C@H]4CC[C@H](n5cc6cc(NC(=O)c7cccc(C(F)(F)F)n7)c(C(C)(C)O)cc6n5)CC4)CC3)c21` (some centres unmarked) [I-226]: the DC50 was less than 50 nM. On the same count and under the same terms, with `CN(CCCC#Cc1cccc2c1n(C)c(=O)n2C1CCC(=O)NC1=O)C[C@H]1CC[C@H](n2cc3cc(NC(=O)c4cccc(C(F)(F)F)n4)c(C(C)(C)O)cc3n2)CC1` (some centres unmarked) [I-228, N-(2-((1r,4r)-4-(((5-(1-(2,6-dioxopiperidin-3-yl)-3-methyl-2-oxo-2,3-dihydro-1H-benzo[d]imidazol-4-yl)pent-4-yn-1-yl)(methyl)amino)methyl)cyclohexyl)-6-(2-hydroxypropan-2-yl)-2H-indazol-5-yl)-6-(trifluoromethyl)picolinamide] the figure was less than 50 nM; with `Cn1c(=O)n(C2CCC(=O)NC2=O)c2cccc(CC3CCN(C[C@H]4CC[C@H](n5cc6cc(NC(=O)c7cccc(C(F)(F)F)n7)c(C(C)(C)O)cc6n5)CC4)CC3)c21` (some centres unmarked) [I-229], less than 50 nM; with `CN(C[C@H]1CC[C@H](n2cc3cc(NC(=O)c4cccc(C(C)(C)C)n4)c(C(C)(C)O)cc3n2)CC1)C1CCN(Cc2cccc3c2n(C)c(=O)n3C2CCC(=O)NC2=O)CC1` (some centres unmarked) [I-235], less than 50 nM. As to `Cn1c(=O)n(C2CCC(=O)NC2=O)c2cccc(CCN3CC4(CCN(C(=O)[C@H]5CC[C@H](n6cc7cc(NC(=O)c8cccc(C(F)(F)F)n8)c(C(C)(C)O)cc7n6)CC5)CC4)C3)c21` (some centres unmarked) [I-239], the DC50 is less than 50 nM. In the case of `COc1cc2nn([C@H]3CC[C@H](CN4CCC(CCc5cccc6c5n(C)c(=O)n6C5CCC(=O)NC5=O)CC4)CC3)cc2cc1NC(=O)c1cccc(C(F)(F)F)n1` (some centres unmarked) [I-242], the DC50 was less than 50 nM. Turning to `COc1cc2nn([C@H]3CC[C@H](CN4CCC(c5cccc6c5n(C)c(=O)n6C5CCC(=O)N(C)C5=O)CC4)CC3)cc2cc1NC(=O)c1cccc(C(F)(F)F)n1` (some centres unmarked) [I-257], the 50% degradation concentration (DC50) was in the range of 500 to 1000 nM.

Turning to `COc1cc2nn([C@H]3CC[C@H](CN4CCC(c5cccc6c5n(C)c(=O)n6C5CCC(=O)NC5=O)CC4)CC3)cc2cc1NC(=O)c1cccc(C(C)(C)O)n1` (some centres unmarked) [I-258], the DC50 is less than 50 nM. Consider `COc1cc2nn([C@H]3CC[C@H](CN4CCC5(CC4)CC(CCc4cccc6c4n(C)c(=O)n6C4CCC(=O)NC4=O)C5)CC3)cc2cc1NC(=O)c1cccc(C(F)(F)F)n1` (some centres unmarked) [I-259], for which the DC50 lay within 50 to 100 nM.

The assay is the same for the next values; noted with them: OCI-LY10 cells, 24 hrs incubation, read-out: IRAK4 degradation in OCI-LY10 at 24 hrs: DC50.
As to `COc1cc2nn([C@H]3CC[C@H](CN(C)[C@H]4CC[C@H](Nc5cccc6c5C(=O)N(C5CCC(=O)NC5=O)C6=O)CC4)CC3)cc2cc1NC(=O)c1cccc(C)n1` (some centres unmarked) [I-211], the 50% degradation concentration (DC50) was less than 50 nM.

`CCOc1cc2nn([C@H]3CC[C@H](CN4CCC5(CC4)CC(CCNc4cccc6c4C(=O)N(C4CCC(=O)NC4=O)C6=O)C5)CC3)cc2cc1NC(=O)c1cccc(C(F)(F)F)n1` (some centres unmarked) [I-212]: the 50% degradation concentration (DC50) lay in the range of 100 to 500 nM. For `COc1cc2nn([C@H]3CC[C@H](CN(C)CCCO[C@H]4C[C@@H](Nc5cccc6c5C(=O)N(C5CCC(=O)NC5=O)C6=O)C4)CC3)cc2cc1NC(=O)c1cccc(C(F)(F)F)n1` (some centres unmarked) [I-213], the DC50 lay in the range of 100 to 500 nM. Same read-out and setting: with `COc1cc2nn([C@H]3CC[C@H](CN4CCC5(CC4)CC(CNc4cccc6c4C(=O)N(C4CCC(=O)NC4=O)C6=O)C5)CC3)cc2cc1NC(=O)c1cccc(-c2cnn(C)c2)n1` (some centres unmarked) [I-218] the figure was 50 to 100 nM. Same read-out and setting: with `COc1cc2nn([C@H]3CC[C@H](CN(C)C4CCC5(CC4)CC(CNc4cccc6c4C(=O)N(C4CCC(=O)NC4=O)C6=O)C5)CC3)cc2cc1NC(=O)c1cccc(-c2cnn(C)c2)n1` (some centres unmarked) [I-219] the figure was 50 to 100 nM; with `COc1cc2nn([C@H]3CC[C@H](CN4CCC5(CC4)CCN(c4cccc6c4C(=O)N(C4CCC(=O)NC4=O)C6=O)CC5)CC3)cc2cc1NC(=O)c1cccc(C(F)(F)F)n1` (some centres unmarked) [I-220], 50 to 100 nM; with `CN(CCCO[C@H]1C[C@H](Nc2cccc3c2C(=O)N(C2CCC(=O)NC2=O)C3=O)C1)C[C@H]1CC[C@H](n2cc3cc(NC(=O)c4coc(-c5ccnc(NCC6CC6)c5)n4)c(C(C)(C)O)cc3n2)CC1` (some centres unmarked) [I-221], less than 50 nM. On the same count and under the same terms, with `COc1cc2nn([C@H]3CC[C@H](CN4CCC5(CC4)CC(CNc4ccc6c(c4)C(=O)N(C4CCC(=O)NC4=O)C6=O)C5)CC3)cc2cc1NC(=O)c1cccc(C(F)(F)F)n1` (some centres unmarked) [I-222] the figure was 50 to 100 nM. As to `COc1cc2nn([C@H]3CC[C@H](CN(C)C4CCC5(CC4)CC(Nc4cccc6c4C(=O)N(C4CCC(=O)NC4=O)C6=O)C5)CC3)cc2cc1NC(=O)c1cccc(C(F)(F)F)n1` (some centres unmarked) [I-223], the 50% degradation concentration (DC50) lay in the range of 50 to 100 nM. On the same count and under the same terms, the figure for `COc1cc2nn([C@H]3CC[C@H](CN4CCC5(CC4)CC(Nc4cccc6c4C(=O)N(C4CCC(=O)NC4=O)C6=O)C5)CC3)cc2cc1NC(=O)c1ccc(F)c(C)n1` (some centres unmarked) [I-224] is less than 50 nM. `CN(CCCO[C@H]1C[C@H](Nc2cccc3c2C(=O)N(C2CCC(=O)NC2=O)C3=O)C1)C[C@H]1CC[C@H](n2cc3cc(N(C)C(=O)c4cccc(C(F)(F)F)n4)c(C(C)(C)O)cc3n2)CC1` (some centres unmarked) [I-225]: the DC50 is 500 to 1000 nM. On the same count and under the same terms, with `COc1cc2nn([C@H]3CC[C@H](CN4CCO[C@@H](CCCNc5cccc6c5C(=O)N(C5CCC(=O)NC5=O)C6=O)C4)CC3)cc2cc1NC(=O)c1cccc(C(F)(F)F)n1` (some centres unmarked) [I-227] the figure was 50 to 100 nM; with `COc1cc2nn([C@H]3CC[C@H](CN(C)CCCO[C@H]4C[C@H](Nc5cccc6c5C(=O)N(C5CCC(=O)NC5=O)C6=O)C4)CC3)cc2cc1NC(=O)c1cccc(C(F)(F)F)n1` (some centres unmarked) [I-230], 50 to 100 nM.

As to `COc1cc2nn([C@H]3CC[C@H](CN4CCC(COCCCNc5cccc6c5C(=O)N(C5CCC(=O)NC5=O)C6=O)CC4)CC3)cc2cc1NC(=O)c1cccc(C(C)(C)F)n1` (some centres unmarked) [I-231], the DC50 lay within 50 to 100 nM.

For `COc1cc2nn([C@H]3CC[C@H](CN4CCC5(CC4)CC(CNc4cccc6c4C(=O)N(C4CCC(=O)NC4=O)C6=O)C5)CC3)cc2cc1NC(=O)c1cccc(C(C)(C)F)n1` (some centres unmarked) [I-232], the DC50 was in the range of 50 to 100 nM.

For the compound `CC(C)(O)c1cc2nn([C@H]3CC[C@H](CN4CCO[C@@H](CCCNc5cccc6c5C(=O)N(C5CCC(=O)NC5=O)C6=O)C4)CC3)cc2cc1NC(=O)c1cccc(C(F)(F)F)n1` (some centres unmarked) [I-233], the DC50 was less than 50 nM. `CC(C)(O)c1cc2nn([C@H]3CC[C@H](CN4CCC(O[C@H]5C[C@H](Nc6cccc7c6C(=O)N(C6CCC(=O)NC6=O)C7=O)C5)CC4)CC3)cc2cc1NC(=O)c1cccc(C(C)(C)F)n1` (some centres unmarked) [I-234]: the DC50 was 50 to 100 nM. Take `CN(C[C@H]1CC[C@H](n2cc3cc(NC(=O)c4cccc(C(C)(C)C)n4)c(C(C)(C)O)cc3n2)CC1)[C@H]1CC[C@H](Nc2cccc3c2C(=O)N(C2CCC(=O)NC2=O)C3=O)CC1` (some centres unmarked) [I-236]: the DC50 fell in the range of 50 to 100 nM. On the same count and under the same terms, with `CN(C[C@H]1CC[C@H](n2cc3cc(NC(=O)c4cccc(C(F)(F)F)n4)c(C(C)(C)O)cc3n2)CC1)C1CCC2(CC1)CC(Nc1cccc3c1C(=O)N(C1CCC(=O)NC1=O)C3=O)C2` (some centres unmarked) [I-238] the figure was less than 50 nM. Same read-out and setting: with `CC(C)(C)c1cccc(C(=O)Nc2cc3cn([C@H]4CC[C@H](CN5CCC6(CC5)CC(Nc5cccc7c5C(=O)N(C5CCC(=O)NC5=O)C7=O)C6)CC4)nc3cc2C(C)(C)O)n1` (some centres unmarked) [I-249] the figure was 50 to 100 nM; with `CC(C)(O)c1cc2nn([C@H]3CC[C@H](CN4CCC5(CC4)CC(CCNc4cccc6c4C(=O)N(C4CCC(=O)NC4=O)C6=O)C5)CC3)cc2cc1NC(=O)c1cccc(C(C)(F)F)n1` (some centres unmarked) [I-250], 50 to 100 nM; with `CC(C)(O)c1cc2nn([C@H]3CC[C@H](CN4CCC5(CC4)CC(CNc4cccc6c4C(=O)N(C4CCC(=O)NC4=O)C6=O)C5)CC3)cc2cc1NC(=O)c1cccc(C(C)(C)F)n1` (some centres unmarked) [I-251], 50 to 100 nM. The same measure, in the same setting: the figure for `COc1cc2nn([C@H]3CC[C@H](CN4CC5(CC(CCNc6cccc7c6C(=O)N([C@@H]6CCC(=O)NC6=O)C7=O)C5)C4)CC3)cc2cc1NC(=O)c1cccc(C(C)(F)F)n1` [I-254, 6-(1,1-Difluoroethyl)-N-[2-[4-[[6-[2-[[2-[(3R)-2,6-dioxo-3-piperidyl]-1,3-dioxo-isoindolin-4-yl]amino]ethyl]-2-azaspiro[3.3]heptan-2-yl]methyl]cyclohexyl]-6-methoxy-indazol-5-yl]pyridine-2-carboxamide] is less than 50 nM; for `COc1cc2nn([C@H]3CC[C@H](CN4CC5(CC(CCNc6cccc7c6C(=O)N([C@H]6CCC(=O)NC6=O)C7=O)C5)C4)CC3)cc2cc1NC(=O)c1cccc(C(C)(F)F)n1` [I-255, 6-(1,1-Difluoroethyl)-N-[2-[4-[[6-[2-[[2-[(3S)-2,6-dioxo-3-piperidyl]-1,3-dioxo-isoindolin-4-yl]amino]ethyl]-2-azaspiro[3.3]heptan-2-yl]methyl]cyclohexyl]-6-methoxy-indazol-5-yl]pyridine-2-carboxamide] it is less than 50 nM. Regarding `CN(CCCO[C@H]1C[C@H](Nc2cccc3c2C(=O)N(C2CCC(=O)NC2=O)C3=O)C1)C[C@@]1(C)Cc2cc(NC(=O)c3cccc(C(F)(F)F)n3)c(N3CCOCC3)cc2O1` (stereo partly drawn) [I-256, N-((2R)-2-(((3-((1r,3R)-3-((2-(2,6-Dioxopiperidin-3-yl)-1,3-dioxoisoindolin-4-yl)amino)cyclobutoxy)propyl)(methyl)amino)methyl)-2-methyl-6-morpholino-2,3-dihydrobenzofuran-5-yl)-6-(trifluoromethyl)picolinamide], the DC50 fell in the range of 500 to 1000 nM.

The term DC50 denotes the midpoint of the concentration-degradation curve.
